Assay results as given in article PMC7948405, “Small-molecule control of neurotransmitter sulfonation” (The Journal of Biological Chemistry, 2020).

Columns and labels:
SULT1A3 [1] = target: T1, SULT1A3 (Homo sapiens, UniProt P0DMM9); set-up: method as in PMID 30545938; conditions: saturating inhibitor, cited from earlier work
T1 construct: E. coli–optimized SULT coding regions were inserted into a pGEX-6P expression vector; N-His/GST/MBP triple tag (PreScission-cleavable) (N, cleaved yes); made in house; host or cells: E. coli BL21(DE3)
T1 sequence (P0DMM9 whole entry): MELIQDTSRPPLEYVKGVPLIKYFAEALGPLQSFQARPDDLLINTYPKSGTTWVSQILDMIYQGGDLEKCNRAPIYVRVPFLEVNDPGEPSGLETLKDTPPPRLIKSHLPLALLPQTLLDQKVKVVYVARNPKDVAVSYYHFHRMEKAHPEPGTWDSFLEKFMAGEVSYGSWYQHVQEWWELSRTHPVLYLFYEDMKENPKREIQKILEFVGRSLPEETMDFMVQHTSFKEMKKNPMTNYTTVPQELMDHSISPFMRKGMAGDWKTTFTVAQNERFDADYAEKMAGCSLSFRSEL

SULT1A3 [2] = target: T1, SULT1A3; test: Equilibrium binding of PAP to SULT1A3 complexes (intrinsic fluorescence)
Description: CMP13 binding to SULT1A3 was monitored via binding-induced changes in SULT1A3 intrinsic fluorescence (λex= 290 nm, λem= 335 nm ([17])). […] PAP binding was determined using the same protocol except that [PAP] was varied and CMP13 was 1.0 μM (100 × Ki). Titrations were performed in triplicate. Data were averaged and least-squares fit using a model that assumes a single binding site per monomer.

SULT1A3 [3] = target: T1, SULT1A3; test: Pre-steady-state (stopped-flow fluorescence) binding of PAP to SULT1A3 complexes; conditions: for Kd: read-out: Kd (koff/kon)
Source text: Figure 4 The inhibition mechanism. A, equilibrium binding. Binding was monitored via ligand-induced changes in SULT1A3 intrinsic fluorescence (λex = 290 nm, λem = 335 nm). […] Each dot represents the average of three independent titrations. Lines passing through the data represent the outcomes predicted by least-squares fitting of the averaged data to a single-binding-site model. B, representative PAP-binding reaction. PAP binding was monitored using a stopped-flow fluorimeter (λex = 290 nm, λem ≥ 330 nm (cutoff filter)). Reactions were initiated by rapidly mixing (1:1 v/v) a solution containing SULT1A3 (30 nM, dimer), CMP13 (1.0 μM, 100 × Kd), Tam (160 μM, 200 × Kd), KPO4 (50 mM), pH 7.5, 25(±2) °C, with a solution that was identical except that it lacked SULT1A3 and contained PAP (2.0 μM). The average of five independent progress curves shown and the kobs was obtained by fitting the data to a single exponential. C, pre–steady-state binding. PAP binding was monitored as described for panel B. Reactions were initiated by mixing (1:1 v/v) a solution containing SULT1A3 (30 nM, dimer), CMP13 [0 μM (black dots) or 1.0 μM, 100 × Kd (red and blue dots)], Tam [0 μM (black and blue dots) or 160 μM, 200 × Kd (red dots)], KPO4 (50 mM), pH 7.5, 25(±2) °C, with a solution that was identical except that it lacked SULT1A3 and contained PAP at twice the indicated concentrations. Each kobs value was determined in triplicate, and the averaged values are shown. kon and koff are given, respectively, by the slopes and intercepts obtained from linear least-squares fitting of the kobs vs [PAP] plot. PAP, 3′-phosphoadenosine-5′-phosphate; SULT1A3, sulfotransferase 1A3; Tam, 4-hydroxy-tamoxifen.
To resolve this uncertainty, PAP on- and off-rate constants for a series of open and closed complexes were determined using stopped-flow fluorescence. A representative binding reaction can be seen in Fig. 4B. The binding reactions were pseudo-first order in [PAP], and kobs values were obtained by fitting reaction progress curves to a single-exponential equation. On- and off-rate constants (see Table 3) are given by the plot slopes and intercepts.
Pre–steady-state binding of PAP to SULT1A3 was monitored via ligand-induced changes in SULT1A3 fluorescence using an Applied Photophysics SX20 stopped-flow spectrofluorometer. Fluorescence was measured at λex = 290 nm and λem ≥ 330 nm (using a cutoff filter). […] All reactions were pseudo first order with respect to [PAP]. kobs values, determined in triplicate at each PAP concentration, were obtained by least-squares fitting the average of five progress curves to a single-exponential equation. kon and koff, obtained by linear least-squares fitting, are given by the slopes and intercepts of four-point kobs-vs-[PAP] plots.

[4] = PAP binding to complex E·CMP13, CMP13 1.0 μM
[5] = PAP binding to complex E·CMP13·Tam
[6] = PAP binding to complex E·CMP13·Tam, CMP13 1.0 μM, Tam 160 μM

Compound	% Inhibition at saturation (SULT1A3 [1]; in vitro)	factor by which SULT1A3 turnover is reduced at saturation (SULT1A3 [1])	turnover at saturation as % of that seen in absence of inhibitor (SULT1A3 [1]) [%]	Kd (SULT1A3 [2]; PAP binding to complex E) [nM]	Kd (SULT1A3 [2]; [4]) [nM]	Kd (SULT1A3 [2]; [5]) [nM]	koff (SULT1A3 [3]; PAP binding to complex E) [s⁻¹]	kon (SULT1A3 [3]; PAP binding to complex E) [M⁻¹ s⁻¹]	Kd (SULT1A3 [3]; PAP binding to complex E) [nM]	koff (SULT1A3 [3]; [4]) [s⁻¹]	kon (SULT1A3 [3]; [4]) [M⁻¹ s⁻¹]	Kd (SULT1A3 [3]; PAP binding to complex E·CMP13) [nM]	koff (SULT1A3 [3]; [6]) [s⁻¹]	kon (SULT1A3 [3]; [6]) [M⁻¹ s⁻¹]	Kd (SULT1A3 [3]; [5]) [nM]
CC(C)Cc1ccc2cc(CO)ccc2n1 [CMP8]	54 (3) %	2	46												
Nc1ncnc2c1ncn2[C@@H]1O[C@H](COP(=O)(O)O)[C@@H](OP(=O)(O)O)[C@H]1O [PAP, 3′-phosphoadenosine-5′-phosphate]				320	31	350	2.5	6.9e+06	360	0.18	6.6e+06	29	2.3	6.5e+06	350
